These compounds were tested against T1, PD-1/PD-L1 (Homo sapiens, UniProt Q9NZQ7) (assay: PD-1/PD-L1 Homogenous Time-Resolved Fluorescence (HTRF) binding assay). Details: PD-L1-His 10 nM, PD-1-Ig 20 nM.
T1 construct: TVMV protease site linker (C); made in house; host or cells: HEK293T cells
Summary of the method: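 Inhibitors pre-incubated 15 min with PD-L1-His extracellular domain (10 nM final) in dPBS with 0.1% BSA and 0.05% Tween-20, then PD-1-Ig (20 nM final) added for a further 15 min. Read-out by HTRF with europium cryptate anti-Ig (1 nM) and APC anti-His (20 nM). Related pairs: PD-1-Ig/PD-L2-His (20/5 nM), CD80-His/PD-L1-Ig (100/10 nM).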

T1 sequence (Q9NZQ7 18-239): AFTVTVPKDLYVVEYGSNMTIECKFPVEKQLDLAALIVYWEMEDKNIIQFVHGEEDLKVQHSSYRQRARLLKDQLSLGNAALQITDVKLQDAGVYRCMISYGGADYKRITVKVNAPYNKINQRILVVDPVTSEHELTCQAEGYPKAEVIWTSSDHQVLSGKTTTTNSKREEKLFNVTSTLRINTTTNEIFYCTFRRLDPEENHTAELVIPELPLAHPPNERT

Point of comparison: `Cc1nc(CNCc2cc(Cl)c(OCc3cccc(-c4cccc(OCC5CCCN(C)C5)c4Cl)c3C)cc2OCc2cncc(C#N)c2)no1` (stereo not drawn) [Example 2603, 5-((4-chloro-5-((2′-chloro-2-methyl-3′-((1-methylpiperidin-3-yl)methoxy)-[1,1′-biphenyl]-3-yl)methoxy)-2-((((5-methyl-1,2,4-oxadiazol-3-yl)methyl)amino)methyl)phenoxy)methyl)nicotinonitrile], IC50 0.9 nM. Against it:
- Cc1c(COc2cc(OCc3cncc(C#N)c3)c(CN3CCc4[nH]ncc4C3)cc2Cl)cccc1-c1cccc(OCC2CCCN(C)C2)c1Cl (stereo not drawn) [Example 2587, 5-((4-chloro-5-((2′-chloro-2-methyl-3′-((1-methylpiperidin-3-yl)methoxy)-[1,1′-biphenyl]-3-yl)methoxy)-2-((1,4,6,7-tetrahydro-5H-pyrazolo[4,3-c]pyridin-5-yl)methyl)phenoxy)methyl)nicotinonitrile] — the same, 0.9 nM
- Cc1c(COc2cc(OCc3cnccn3)c(CNCc3cccnn3)cc2Cl)cccc1-c1cccc(OCC2CCCN(C)C2)c1Cl (stereo not drawn) [Example 2058, N-(5-chloro-4-((2′-chloro-2-methyl-3′-((1-methylpiperidin-3-yl)methoxy)-[1,1′-biphenyl]-3-yl)methoxy)-2-(pyrazin-2-ylmethoxy)benzyl)-1-(pyridazin-3-yl)methanamine] — 4.3-fold higher, 3.9 nM
- Cc1c(COc2cc(OCc3cncc(C#N)c3)c(CNCc3ccc4c(N)n[nH]c4c3)cc2Cl)cccc1-c1cccc(OCC2CCCN(C)C2)c1Cl (stereo not drawn) [Example 2610, 5-((2-((((3-amino-1H-indazol-6-yl)methyl)amino)methyl)-4-chloro-5-((2′-chloro-2-methyl-3′-((1-methylpiperidin-3-yl)methoxy)-[1,1′-biphenyl]-3-yl)methoxy)phenoxy)methyl)nicotinonitrile] — within 1.5-fold, 0.8 nM
- CC(=O)NC1CCN(CCCOc2cccc(-c3cccc(COc4cc(OCc5cncc(C#N)c5)c(CN(C)C(C)c5nnn[nH]5)cc4Cl)c3C)c2C)CC1 (stereo not drawn) [Example 1040, N-(1-(3-((3′-((4-(((1-(1H-Tetrazol-5-yl)ethyl)(methyl)amino)methyl)-2-chloro-5-((5-cyanopyridin-3-yl)methoxy)phenoxy)methyl)-2,2′-dimethyl-[1,1′-biphenyl]-3-yl)oxy)-propyl)piperidin-4-yl)acetamide] — 2.6-fold higher, 2.3 nM
- Cc1c(COc2cc(OCc3cncc(C#N)c3)c(CNCCc3ncn[nH]3)cc2Cl)cccc1-c1cccc(OCC2CCCN(C)C2)c1Cl (stereo not drawn) [Example 2579, 5-((2-(((2-(1H-1,2,4-triazol-5-yl)ethyl)amino)methyl)-4-chloro-5-((2′-chloro-2-methyl-3′-((1-methylpiperidin-3-yl)methoxy)-[1,1′-biphenyl]-3-yl)methoxy)phenoxy)methyl)nicotinonitrile] — 1.8-fold lower, 0.5 nM
- Cc1c(COc2cc(OCc3cncc(C#N)c3)c(CNCCc3c[nH]cn3)cc2Cl)cccc1-c1cccc(OCC2CCCN(C)C2)c1Cl (stereo not drawn) [Example 2580, 5-((2-(((2-(1H-imidazol-4-yl)ethyl)amino)methyl)-4-chloro-5-((2′-chloro-2-methyl-3′-((1-methylpiperidin-3-yl)methoxy)-[1,1′-biphenyl]-3-yl)methoxy)phenoxy)methyl)nicotinonitrile] — 4.5-fold lower, 0.2 nM
- Cc1c(COc2cc(OCc3cncc(C#N)c3)c(CNCc3ncc(-c4ccccc4)o3)cc2Cl)cccc1-c1cccc(OCCCN2CC[C@@H](O)C2)c1C [Example 2566, (R)-5-((4-chloro-5-((3′-(3-(3-hydroxypyrrolidin-1-yl)propoxy)-2,2′-dimethyl-[1,1′-biphenyl]-3-yl)methoxy)-2-((((5-phenyloxazol-2-yl)methyl)amino)methyl)phenoxy)methyl)nicotinonitrile] — 54-fold higher, 48.6 nM
- CCc1csc(CNCc2cc(Cl)c(OCc3cccc(-c4cccc(OCCCN5CC[C@@H](O)C5)c4C)c3C)cc2OCc2cncc(C#N)c2)n1 [Example 2548, (R)-5-((4-chloro-2-((((4-ethylthiazol-2-yl)methyl)amino)methyl)-5-((3′-(3-(3-hydroxypyrrolidin-1-yl)propoxy)-2,2′-dimethyl-[1,1′-biphenyl]-3-yl)methoxy)phenoxy)methyl)nicotinonitrile] — lower, < 0.038 nM
- Cc1c(COc2cc(OCc3cncc(C#N)c3)c(CNCc3ccnn3C)cc2Cl)cccc1-c1cccc(OCC2CCCN(C)C2)c1Cl (stereo not drawn) [Example 2614, 5-((4-chloro-5-((2′-chloro-2-methyl-3′-((1-methylpiperidin-3-yl)methoxy)-[1,1′-biphenyl]-3-yl)methoxy)-2-((((1-methyl-1H-pyrazol-5-yl)methyl)amino)methyl)phenoxy)methyl)nicotinonitrile] — 1.9-fold higher, 1.7 nM
- Cc1c(COc2cc(OCc3cncc(C#N)c3)c(CN(C)Cc3cc(C4CC4)on3)cc2Cl)cccc1-c1cccc(OCCCN2CC[C@@H](O)C2)c1C [Example 2552, (R)-5-((4-chloro-2-((((5-cyclopropylisoxazol-3-yl)methyl)(methyl)amino)methyl)-5-((3′-(3-(3-hydroxypyrrolidin-1-yl)propoxy)-2,2′-dimethyl-[1,1′-biphenyl]-3-yl)methoxy)phenoxy)methyl)nicotinonitrile] — 8.1-fold higher, 7.3 nM
- Cc1c(COc2cc(OCc3cncc(C#N)c3)c(CN3CCC(c4cc[nH]n4)C3)cc2Cl)cccc1-c1cccc(OCCCN2CC[C@@H](O)C2)c1C (stereo partly drawn) [Example 2513, 5-((2-((3-(1H-pyrazol-3-yl)pyrrolidin-1-yl)methyl)-4-chloro-5-((3′-(3-((R)-3-hydroxypyrrolidin-1-yl)propoxy)-2,2′-dimethyl-[1,1′-biphenyl]-3-yl)methoxy)phenoxy)methyl)nicotinonitrile] — 4-fold higher, 3.6 nM
- Cc1c(COc2cc(OCc3cncc(C#N)c3)c(CN(C)Cc3cnccn3)cc2Cl)cccc1-c1cccc(OCCCN2CC[C@@H](O)C2)c1C [Example 2030, (R)-5-((4-chloro-5-((3′-(3-(3-hydroxypyrrolidin-1-yl)propoxy)-2,2′-dimethyl-[1,1′-biphenyl]-3-yl)methoxy)-2-((methyl(pyrazin-2-ylmethyl)amino)methyl)phenoxy)methyl)nicotinonitrile] — within 1.5-fold, 1.1 nM
- Cc1cc(CNCc2cc(Cl)c(OCc3cccc(-c4cccc(OCCCN5CC[C@@H](O)C5)c4C)c3C)cc2OCc2cncc(C#N)c2)no1 [Example 2528, (R)-5-((4-chloro-5-((3′-(3-(3-hydroxypyrrolidin-1-yl)propoxy)-2,2′-dimethyl-[1,1′-biphenyl]-3-yl)methoxy)-2-((((5-methylisoxazol-3-yl)methyl)amino)methyl)phenoxy)methyl)nicotinonitrile] — 3.4-fold higher, 3.1 nM
- Cc1c(COc2cc(OCc3cncc(C#N)c3)c(CNCc3c[nH]cn3)cc2Cl)cccc1-c1cccc(OCc2cncnc2)c1Cl [Example 2062, 5-((2-((((1H-imidazol-4-yl)methyl)amino)methyl)-4-chloro-5-((2′-chloro-2-methyl-3′-(pyrimidin-5-ylmethoxy)-[1,1′-biphenyl]-3-yl)methoxy)phenoxy)methyl)nicotinonitrile] — 8.4-fold higher, 7.6 nM
- Cc1c(COc2cc(OCc3cncc(C#N)c3)c(CNCCc3cscn3)cc2Cl)cccc1-c1cccc(OCCCN2CC[C@@H](O)C2)c1C [Example 2506, (R)-5-((4-chloro-5-((3′-(3-(3-hydroxypyrrolidin-1-yl)propoxy)-2,2′-dimethyl-[1,1′-biphenyl]-3-yl)methoxy)-2-(((2-(thiazol-4-yl)ethyl)amino)methyl)phenoxy)methyl)nicotinonitrile] — 2.2-fold lower, 0.4 nM
- Cc1c(COc2cc(OCc3cncc(C#N)c3)c(CN(C)Cc3c[nH]cn3)cc2Cl)cccc1-c1cccc(OCCCN2CC[C@@H](O)C2)c1C [Example 2007, (R)-5-((2-((((1H-imidazol-4-yl)methyl)(methyl)amino)methyl)-4-chloro-5-((3′-(3-(3-hydroxypyrrolidin-1-yl)propoxy)-2,2′-dimethyl-[1,1′-biphenyl]-3-yl)methoxy)phenoxy)methyl)nicotinonitrile] — 1.5-fold lower, 0.6 nM
- Cc1c(COc2cc(OCc3cncc(C#N)c3)c(CNCc3ncc[nH]3)cc2Cl)cccc1-c1cccc(OCC2CCCN(C)C2)c1Cl (stereo not drawn) [Example 2577, 5-((2-((((1H-imidazol-2-yl)methyl)amino)methyl)-4-chloro-5-((2′-chloro-2-methyl-3′-((1-methylpiperidin-3-yl)methoxy)-[1,1′-biphenyl]-3-yl)methoxy)phenoxy)methyl)nicotinonitrile] — 1.8-fold higher, 1.6 nM
- Cc1cc(CNCc2cc(Cl)c(OCc3cccc(-c4cccc(OCC5CCCN(C)C5)c4Cl)c3C)cc2OCc2cncc(C#N)c2)no1 (stereo not drawn) [Example 2575, 5-((4-chloro-5-((2′-chloro-2-methyl-3′-((1-methylpiperidin-3-yl)methoxy)-[1,1′-biphenyl]-3-yl)methoxy)-2-((((5-methylisoxazol-3-yl)methyl)amino)methyl)phenoxy)methyl)nicotinonitrile] — 3.1-fold higher, 2.8 nM
- Cc1c(COc2cc(OCc3cncc(C#N)c3)c(CN3CCC(c4nnn[nH]4)C3)cc2Cl)cccc1-c1cccc(OCCCNC[C@H](O)CO)c1Cl (stereo partly drawn) [Example 1033, 5-((2-((3-(1H-Tetrazol-5-yl)pyrrolidin-1-yl)methyl)-4-chloro-5-((2′-chloro-3′-(3-(((S)-2,3-dihydroxypropyl)amino)propoxy)-2-methyl-[1,1′-biphenyl]-3-yl)methoxy)phenoxy)-methyl)nicotinonitrile] — 2.3-fold higher, 2.1 nM
- Cc1c(COc2cc(OCc3cncc(C#N)c3)c(CN3CCC(c4nnn[nH]4)C3)cc2Cl)cccc1-c1cccc(OCCCN2CC[C@@H](O)C2)c1C (stereo partly drawn) [Example 1017, 5-((2-((3-(1H-Tetrazol-5-yl)pyrrolidin-1-yl)methyl)-4-chloro-5-((3′-(3-((R)-3-hydroxy-pyrrolidin-1-yl)propoxy)-2,2′-dimethyl-[1,1′-biphenyl]-3-yl)methoxy)phenoxy)methyl)-nicotinonitrile] — 2.1-fold higher, 1.9 nM

— patent publication US20240124417A1, “COMPOUNDS USEFUL AS IMMUNOMODULATORS” (Bristol-Myers Squibb Company, priority 2019, published 2024)
